# From patent EP0839146B1, “PIPERAZINE DERIVATIVES AND THEIR USE AS 5-HT1A ANTAGONISTS” (AMERICAN HOME PRODUCTS CORPORATION, priority 1995, dated 1997)
# Legend:
# [1] = target: α1 receptors; test: α1 binding affinity (procedure of Marrow et al)
# Method: The compounds were tested for α1 binding affinity (column 3) by the procedure of A.L. Marrow et al, Mol. Pharmacol., 1986, 29, 321.
# [2] = target: T1, 5-HT1A receptor (Rattus norvegicus, UniProt P19327); test: 5-HT1A binding affinity in rat hippocampal membrane homogenate (method of Alexander and Wood); design: in rat hippocampal membrane homogenate; from tissue; host or cells: rat hippocampus (membrane homogenate)
# T1 sequence (P19327 1-422): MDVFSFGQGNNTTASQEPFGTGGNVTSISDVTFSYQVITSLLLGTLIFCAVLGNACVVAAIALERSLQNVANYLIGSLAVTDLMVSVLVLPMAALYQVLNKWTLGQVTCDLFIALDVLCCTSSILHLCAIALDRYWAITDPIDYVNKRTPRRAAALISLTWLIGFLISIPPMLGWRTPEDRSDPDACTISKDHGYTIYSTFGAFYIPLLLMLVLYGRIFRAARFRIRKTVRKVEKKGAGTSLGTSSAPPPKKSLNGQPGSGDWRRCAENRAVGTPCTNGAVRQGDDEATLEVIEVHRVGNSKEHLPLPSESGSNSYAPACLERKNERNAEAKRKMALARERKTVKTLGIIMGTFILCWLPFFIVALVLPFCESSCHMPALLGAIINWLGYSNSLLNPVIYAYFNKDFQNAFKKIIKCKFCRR
# Method: The compounds were tested for 5-HT1A binding affinity (column 2) in rat hippocampal membrane homogenate by the method of B.S. Alexander and M.D. Wood, J. Pharm. Pharmacol., 1988, 40, 888-891.
# [3] = target: T1, 5-HT1A receptor; test: 5-HT1A receptor antagonist activity: antagonism of the 8-OH-DPAT syndrome in rats after oral pretreatment; assay type: in vivo; design: from tissue; host or cells: whole animal (rat), in vivo
# Method: 5-HT1A receptor antagonist activity (columns 5 and 6) is assessed by the ability of the selective 5-HT1A receptor agonist, 8-OH-DPAT, to induce 'the 8-OH-DPAT syndrome' in rats characterised by extended flat body posture, forepaw treading and hyperlocomotion. The 8-OH-DPAT syndrome is scored as present (definite syndrome response) or absent (equivocal or no syndrome response) during the period 0-5 min following intravenous (i.v.) administration of the test agonist via a lateral tail vein.
# A range of doses, on a logarithmic scale and encompassing the expected ED50, were chosen for the test agonist following preliminary evaluation. […]
# Test antagonists were administered orally (p.o.) 60 min, before i.v. administration of 8-OH-DPAT. ED50 values for 8-OH-DPAT were determined for the different pretreatment groups using the sequential up/down procedure as described above.
# The response to the selective 5-HT1A receptor agonist, 8-OH-DPAT, is represented as an ED50 value for induction of the 8-OH-DPAT syndrome, which is determined using the sequential up/down analysis following intravenous administration. 5-HT1A antagonist activity is determined by the ability of the test compound to antagonise the response to 8-OH-DPAT, i.e. to increase the ED50 for induction of the 8-OH-DPAT syndrome compared with vehicle pretreatment. […]
compound,measurement,setting,value
C[C@H](CN(C(=O)C1CCCCC1)c1ccccn1)N1CCN(c2cccc3c2OCCO3)CC1 [Example A1],IC50,[1],625 nM
same,Ratio 5HT1A/α1,"[2]; binding selectivity, ratio of 5-HT1A binding to α1-binding",145
same,IC50,[2]; rat hippocampal membrane homogenate,4.3 nM
same,5-HT1A-antagonist Ratio (ED50 antagonist @ 3mg/kg po)/ED50 vehicle,[3]; ED50 of i.v. 8-OH-DPAT after test compound 3 mg/kg p.o. divided by ED50 after vehicle,20
same,5-HT1A-antagonist activity MED,"[3]; antagonist p.o. 60 min before i.v. 8-OH-DPAT, lowest dose at which ED50 confidence limits of antagonist and vehicle groups do not overlap",1 mg/kg po
